Like-named read-outs stand apart in the source and are kept apart here.
Tests used:
[1] = Exposure in TNF-induced SIRS study (blood samples for PK determination); assay type: in vivo; settings: mouse
Description: (§1) Program compounds were dosed by oral gavage 2 h before IV challenge with 20 μg of murine TNF (#CRT192C, Cell Sciences, Canton, Mass.). zVAD-fmk (16.7 mg/kg) was given IV, 15 min before mTNF injection. The RIPK1 kinase inhibitor, necrostatin-1s (Nec-1s) was used as a positive control and was dosed at 6 mg/kg, IV, 30 minutes before mTNF challenge. mTNF was diluted in endotoxin-free PBS and 20 μg/mouse was injected in a volume of 0.1 ml into the retro-orbital sinus. All IV injections were done via the retro-orbital sinus and injection sites were alternated (left and right sides).
(§2) Blood samples for PK determination were collected into heparinized microtainer blood tubes (Part #365965, Becton Dickinson, Franklin Lakes N.J.) and mixed well. Dried blood spots (DBS) were prepared by pipetting 10 μl of whole blood, in duplicate, onto bioanalysis cards (#GR2261004, Perkin Elmer, Greenville, S.C.). A serum sample was obtained by collecting blood into a separator tube (#450472, Greiner Bio-One, Austria) and centrifuged (10 min at 10,000 RPM) to separate the serum. All blood samples were obtained from the retro-orbital sinus while under isoflurane anesthesia.

[2] = tested on: Female C57/Bl6 mice, mTNF + zVAD-fmk induced hypothermia; experiment: TNF-Induced Systemic Inflammatory Response Syndrome (SIRS), body temperature; assay type: in vivo; settings: mouse, 3 h after mTNF, relative to 6 mg/kg Nec-1s, read-out: % protection from body temp loss; for inhibition in vivo at 1 mg/kg: 1.0 mg/kg oral gavage 2 h before mTNF
Description: (§3) TNF-Induced Systemic Inflammatory Response Syndrome (SIRS)
(§4) RIPK1 inhibitors were evaluated for efficacy in vivo using a TNF-dependent model of systemic “shock”, also known as systemic inflammatory response syndrome (SIRS) (Duprez et al. 2011, Immunity 35(6):908-918). Intravenous injection of murine TNF induces a systemic inflammatory response characterized by a decrease in body temperature and an increase in circulating cytokines (IL-6, KC) in the serum. The addition of zVAD-fmk strongly sensitizes mice to TNF-induced shock through the inhibition of caspases (Cauwels et al., 2003). The combination of pretreatment with zVAD-fmk prior to injection of mTNF forms the basis of the RIPK1-dependent, TNF-induced, inflammatory response in this model.
(§5) Female C57/Bl6 mice (9 to 11 weeks old) were obtained from Jackson Labs (Bar Harbor, Me.). Mice were housed in BMS' animal facility with ad libitum access to food and water. Mice were and allowed to acclimate for at least 2 weeks and typically weighed at least 21 grams before being used in any studies. Group size was 6 mice per treatment. All experiments were conducted with the approval of BMS' Institutional Animal Care and Use Committee (IACUC)
as §1
Three (3) hours after mTNF injection, mice were assessed for hypothermia and mortality. Rectal body temperature was recorded with an electric thermometer (Acorn Series Model JKT with a Ret-3 probe, Oakton Instruments Vernon Hills Ill. 60061).
(§6) Using these assays, the percent protection of body temperature and percent reduction in IL6 cytokine of the following compounds were determined. See Table B. % Protection is relative to a 6 mg/kg dose of Nec-1s (5-((7-Cl-1H-indol-3-yl)methyl)-3-methylimidazolidine-2,4-dione)).

[3] = tested on: MLKL phosphorylation in HT29-L23 human colorectal adenocarcinoma cells; experiment: MLKL Phosphorylation High-Content Assay; assay type: cell-based; settings: Homo sapiens, x marks IC50 class 20-200 nM, read-out: pMLKL cell activity 20-200 nM
Method in brief: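 IC50 and Ymax obtained by 4-parameter logistic fitting of MLKL phosphorylation, measured as mean circ-ring average intensity ratio from high-content images. Staining used an anti-phospho-S358 MLKL antibody overnight at 4° C., following six-hour cell incubation at 37° C.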

[4] = tested on: IL-6; experiment: TNF-Induced SIRS, serum cytokines (IL-6, KC) by ELISA; assay type: in vivo; settings: mouse, relative to 6 mg/kg Nec-1s, read-out: % protection from IL6 increase; for inhibition in vivo at 1 mg/kg: 1.0 mg/kg oral gavage 2 h before mTNF
Description: as §3, §4, §5, §1, §2
Serum cytokines were evaluated by ELISA assay. IL-6 was measured using OPTeia Kit (Becton Dickinson, Franklin Lakes N.J.) while KC was measured using an R&D Duoset kit (R&D Systems Inc. Minneapolis, Minn.)
as §6

[5] = target: T1, His-GST-TVMV-hRIPK1(1-324) (Homo sapiens, UniProt Q13546); experiment: RIPK1 HTRF Binding Assay
T1 construct: The coding region of human RIPK1(1-324) flanked by NdeI site at 5′ end; made in house; host or cells: Spodoptera frugiperda (Sf9) insect cells, baculovirus
T1 sequence (Q13546 1-324): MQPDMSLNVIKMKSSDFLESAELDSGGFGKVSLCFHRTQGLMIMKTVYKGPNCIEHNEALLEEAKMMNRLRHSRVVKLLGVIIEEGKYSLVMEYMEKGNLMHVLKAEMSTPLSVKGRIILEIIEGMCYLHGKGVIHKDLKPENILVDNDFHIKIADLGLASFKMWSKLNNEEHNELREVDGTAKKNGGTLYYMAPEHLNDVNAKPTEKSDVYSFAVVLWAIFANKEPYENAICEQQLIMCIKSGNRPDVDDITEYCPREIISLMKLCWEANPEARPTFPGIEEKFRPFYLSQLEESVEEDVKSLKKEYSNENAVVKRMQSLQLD

[6] = x marks IC50 class <20 nM, read-out: RIPK1 HTRF binding <20 nM
[7] = 0.4 mg/kg oral gavage 2 h before mTNF

Row | SMILES | Exposure ([1]; 1.0 mg/kg oral gavage) [nM] | inhibition in vivo at 1 mg/kg [2] [%] | IC50 [3] [µM] | inhibition in vivo at 1 mg/kg [4] [%] | IC50 [5, 6] [µM] | Exposure ([1]; 0.4 mg/kg oral gavage) [nM] | inhibition in vivo at 0.4 mg/kg [2, 7] [%] | inhibition in vivo at 0.4 mg/kg [4, 7] [%] | IC50 ([5]; x marks IC50 class 20-200 nM, read-out: RIPK1 HTRF binding 20-200 nM) [µM]
1 | COc1ncc(-c2ccn3nc(N)nc3c2)cc1C(=O)NCc1cc(OC(F)(F)F)ccc1F [Example 160, 5-{2-amino-[1,2,4]triazolo[1,5-a]pyridin-7-yl}-N-{[2-fluoro-5-(trifluoromethoxy)phenyl]methyl}-2-methoxypyridin-3-carboxamide] | 693 | 107 | 0.02 to 0.2 | 60 | < 0.02 |  |  |  | 
2 | COc1ncc(-c2ccn3nc(N)nc3c2)cc1C(=O)NCc1cccc(OC(F)(F)F)c1 [Example 58, 5-{2-Amino-[1,2,4]triazolo[1,5-a]pyridin-7-yl}-2-methoxy-N-{[3-(trifluoromethoxy)phenyl]methyl}pyridine-3-carboxamide] |  |  | 0.02 to 0.2 |  | < 0.02 | 409 | 113 | 78 | 
3 | COc1ncc(-c2ccn3nc(N)nc3c2)cc1C(=O)NCCCc1ccccc1 [Example 102, 5-{2-amino-[1,2,4]triazolo[1,5-a]pyridin-7-yl}-2-methoxy-N-(4-phenylpropyl)pyridine-3-carboxamide] | 1287 | 107 | 0.02 to 0.2 | 82 |  |  |  |  | 0.02 to 0.2

From patent publication US10913738B2 (BRISTOL-MYERS SQUIBB COMPANY, priority 2017, dated 2021)
